Data from publication PMC5362899, “Structural insights into the nucleotide base specificity of P2X receptors” (Scientific Reports, 2017).

Key:
[1] = target: T1, zebrafish P2X4 (zfP2X4) WT (Danio rerio, UniProt F8W463); experiment: Two Electrode Voltage Clamp recording of Xenopus oocytes expressing zebrafish P2X4 WT; type: cell-based; details: 1 mM nucleotide for 10 sec after prior application of 100 μM ATP; holding potential −70 mV; n = 4
T1 construct: The cRNAs encoding zebrafish P2X4 (NP_705939; WT); expressed in transfected cells; host or cells: Xenopus laevis oocytes injected with cRNA from pGEMHE
T1 sequence (F8W463 1-389): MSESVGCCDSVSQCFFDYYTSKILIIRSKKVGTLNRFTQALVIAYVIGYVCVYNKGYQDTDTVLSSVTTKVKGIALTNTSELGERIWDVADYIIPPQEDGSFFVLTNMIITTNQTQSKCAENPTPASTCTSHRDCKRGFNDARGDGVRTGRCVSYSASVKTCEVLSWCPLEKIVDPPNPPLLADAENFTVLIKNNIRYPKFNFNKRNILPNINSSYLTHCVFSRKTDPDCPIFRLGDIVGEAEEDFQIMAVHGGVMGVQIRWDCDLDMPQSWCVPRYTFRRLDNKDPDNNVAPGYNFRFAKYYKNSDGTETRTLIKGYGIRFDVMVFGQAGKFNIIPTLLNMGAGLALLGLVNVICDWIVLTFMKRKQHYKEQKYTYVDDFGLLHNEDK
From the text: To assess the nucleotide base specificity of zebrafish P2X4 (zfP2X4), we first performed Two Electrode Voltage Clamp (TEVC) recording of Xenopus oocytes. As shown previously, the initial “priming” application with a low concentration of ATP increases P2X receptors sensitivity to second or more applications of ligands, which is useful for evaluating the affinity of ligands. Therefore, we expressed zfP2X4 in oocytes and recorded the zfP2X4-associated currents evoked by the application of high concentrations (1 mM) of nucleoside triphosphates (ATP, CTP, GTP and UTP), following the prior application of 100 μM ATP.
Figure 1 Current responses of zebrafish P2X4 evoked by nucleoside triphosphates. (A–D) Representative currents of zebrafish P2X4 WT, evoked first by 100 μM ATP and then by (A) 1 mM ATP, (B) 1 mM CTP, (C) 1 mM GTP and (D) 1 mM UTP. Each nucleotide was applied for 10 sec. The holding potential was −70 mV.
(§1) The cRNAs encoding zebrafish P2X4 (NP_705939; WT) and rat P2X4 (NP_113782.1; WT and mutants) were transcribed from pGEMHE plasmids, using a mMessage mMachine® T7 ULTRA kit (Ambion, Huntingdon, Cambridgeshire, UK). Xenopus laevis oocytes were prepared, and RNA (100 ng for zebrafish P2X4, and 20 ng for rat P2X4) was injected into the oocytes. The oocytes were incubated at 18 °C in Barth’s solution, containing 88 mM NaCl, 1 mM KCl, 2.4 mM NaHCO3, 10 mM HEPES, 0.33 mM Ca(NO3)2, 0.41 mM CaCl2, and 0.82 mM MgSO4, pH 7.4, supplemented with 50 μg/ml gentamicin, and were used for recording after 2–3 days. Recording solutions contained 100 mM NaCl, 5 mM HEPES, 2 mM MgCl2, pH 7.3, and nucleoside triphosphates (ATP, CTP, GTP, and UTP), which were freshly prepared each day. Oocytes were held at −70 mV with a bath-clamp amplifier (OC-725C, Warner Co., USA), and macroscopic currents were recorded and analyzed using the pClamp 10 software (Molecular Devices, USA)[33][34]. We measured n = 4 for zebrafish P2X4 data and n = 7–9 for rat P2X4 data.

rat P2X4 rH140A mutant = target: T2, rat P2X4 rH140A mutant (Rattus norvegicus, UniProt P51577, H140A); experiment: Two-Electrode Voltage Clamp recording, rat P2X4 H140A mutant in Xenopus oocytes; type: cell-based; details: for fold reduced affinity as compared with rWT: rH140A mutant vs rWT, from EC50; for EC50 / nucleotide-evoked currents: rH140A mutant; for EC50: oocytes held at −70 mV, n = 7-8, read-out: EC50 (evoked current, dose-response); for nucleotide-evoked currents: 3 mM GTP, 3 mM UTP (Fig. S4)
T2 construct: rat P2X4 (NP_113782.1; WT and mutants) were transcribed from pGEMHE plasmids; expressed in transfected cells; host or cells: Xenopus laevis oocytes injected with cRNA from pGEMHE
T2 sequence (P51577 1-388 H140A): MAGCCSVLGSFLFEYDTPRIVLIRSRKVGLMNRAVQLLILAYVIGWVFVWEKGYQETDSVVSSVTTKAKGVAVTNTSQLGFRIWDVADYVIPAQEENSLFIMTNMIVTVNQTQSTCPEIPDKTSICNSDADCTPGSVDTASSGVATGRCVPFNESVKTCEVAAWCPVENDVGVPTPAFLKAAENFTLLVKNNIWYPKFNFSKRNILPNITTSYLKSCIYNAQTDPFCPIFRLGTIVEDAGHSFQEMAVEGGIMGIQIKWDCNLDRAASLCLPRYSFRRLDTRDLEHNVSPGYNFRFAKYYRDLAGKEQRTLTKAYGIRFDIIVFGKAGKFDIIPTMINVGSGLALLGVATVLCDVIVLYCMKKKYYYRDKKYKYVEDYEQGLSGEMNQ
Protocol: Figure 4 Current responses of ^rWT, ^rT186S, ^rH140A and ^rH140R evoked by ATP and CTP. (A,B) Representative currents of ^rWT evoked by ATP (1–300 μM) (A) and CTP (10–10,000 μM) (B). (C,D) Representative currents of the ^rT186S mutant evoked by ATP (1–300 μM) (C) and CTP (10–10,000 μM) (D). (E,F) Representative currents of the ^rH140A mutant evoked by ATP (1–300 μM) (E) and CTP (10–10,000 μM) (F). (G,H) Representative currents of the ^rH140R mutant evoked by ATP (1–300 μM) (G) and CTP (10–10,000 μM) (H). (I–K) Concentration-response curves evoked by ATP and CTP in the ^rWT and the ^rT186S mutant (I), in the ^rWT and the ^rH140A mutant (J) and in the ^rWT and the ^rH140R mutant (K). Symbols are defined in the figure, and bars depict means ± SEM (n = 7–9).
Next we assessed the functional role of R143 in zfP2X4, as its side chain forms a hydrogen bond with the cytosine ring in the CTP-bound structure (Fig. 3A,B). This arginine residue is substituted with a similar basic residue, histidine (^rH140), in rat P2X4 (Fig. 3E).
as §1

Nc1ncnc2c1ncn2[C@@H]1O[C@H](COP(=O)(O)OP(=O)(O)OP(=O)(O)O)[C@@H](O)[C@H]1O [ATP, Adenosine 5-triphosphate]
zfP2X4-associated currents evoked by nucleoside triphosphate [1]: detected specific ATP- and CTP-evoked currents | fold reduced affinity as compared with rWT (rat P2X4 rH140A mutant): about 2.5 fold | EC50 (rat P2X4 rH140A mutant): 0.0428 ± 0.0063 mM

Nc1ccn([C@@H]2O[C@H](COP(=O)(O)OP(=O)(O)OP(=O)(O)O)[C@@H](O)[C@H]2O)c(=O)n1 [CTP]
zfP2X4-associated currents evoked by nucleoside triphosphate [1]: detected specific ATP- and CTP-evoked currents | fold reduced affinity as compared with rWT (rat P2X4 rH140A mutant): ~14 fold | EC50 (rat P2X4 rH140A mutant): 7.99 mM

Nc1nc2c(ncn2[C@@H]2O[C@H](COP(=O)(O)OP(=O)(O)OP(=O)(O)O)[C@@H](O)[C@H]2O)c(=O)[nH]1 [GTP]
zfP2X4-associated currents evoked by nucleoside triphosphate [1]: not GTP- and UTP-evoked currents | nucleotide-evoked currents (rat P2X4 rH140A mutant): no GTP- and UTP-evoked currents were detected

O=c1ccn([C@@H]2O[C@H](COP(=O)(O)OP(=O)(O)OP(=O)(O)O)[C@@H](O)[C@H]2O)c(=O)[nH]1 [UTP]
zfP2X4-associated currents evoked by nucleoside triphosphate [1]: not GTP- and UTP-evoked currents | nucleotide-evoked currents (rat P2X4 rH140A mutant): no GTP- and UTP-evoked currents were detected
